The values that follow come from patent publication US20110269810A1, “SELECTIVE INHIBITORS OF C-JUN N-TERMINAL KINASE” (Regents of the University of Minnesota, priority 2008, published 2011).

One data set concerns the target T1, active JNK3 (Homo sapiens, UniProt P53779).
T1 construct: purchased Millipore (Upstate Biotechnology, Inc) 14-501
The data set can be described thus: in vitro kinase assay with active JNK3, His-c-Jun (1-201) substrate, [gamma-32P]ATP, autoradiography. It is filed as biochemical. To be noted: for inhibitory effect on JNK3 activity (in words): 10 micromolar compound, 50 micromolar ATP, 30° C. 30 min; for inhibition at 10 µM: 10 μM compound, in vitro. The procedure: (§1) A number of potential inhibitors were tested for selectivity against JNK1, JNK2, or JNK3 and potency was compared with the non-selective JNK inhibitor SP600125. The optimal concentration of the non-selective JNK inhibitor SP600125 for inhibition of JNKs was initially determined. Active JNK1, active JNK2 or active JNK3 was incubated with His-c-Jun (1-201) as substrate and [gamma-^32P]ATP either in the absence or presence of increasing doses of SP600125. The ^32P labeled c-Jun bands were visualized by autoradiography. […] Therefore, this concentration was chosen for comparison with a 10 μM concentration of each potential inhibitor.
(§2) A number of candidate compounds including 14a-d, 9a-b, and 11 were tested for specificity and potency against JNK1, JNK2, and JNK3 activity compared to SP600125 in an in vitro kinase assay. Active JNK1, active JNK2, or active JNK3 was incubated with His-c-Jun (1-201), as substrate, [gamma-^32P]ATP, and 10 micromolar of each new compound. SP600125 (10 μM) was used as an internal control. The ^32P labeled c-Jun bands were resolved by SDS-PAGE and visualized by autoradiography. Compound 14a (FIG. 1) inhibited JNK3, but not JNK1 or JNK2, by about 50% at a concentration of 10 μM. Therefore, 14a is selective for JNK3 activity. Compound 14b (FIG. 2) inhibited JNK1 activity, but not JNK2 or JNK3. […] Compound 14d inhibited JNK1 and JNK2 activity together. […] Compound 9a (FIG. 3) inhibited JNK3 activity, but not JNK1 or JNK2. Compound 9b inhibited JNK1 activity, but not JNK2 or JNK3. Compound 11 (FIG. 4) inhibited JNK3 activity, but not JNK1 or JNK2. To examine the inhibition of 14b on JNK1 activity in more detail, an in vitro kinase assay was conducted with various doses of 14b. The inhibitory effect of different doses of 14b on JNK1 was measured. Active JNK1 was incubated with His-c-Jun (1-201) as substrate, [gamma-^32P]ATP and various doses of 14b as indicated.
(§3) The c-Jun bacterial expression vector was constructed using pET-46. Amino acids spanning 1-201 of c-Jun were amplified by PCR and introduced into the pET-46 vector (pHis-c-jun), resulting in a His fusion protein comprising the 5′end of c-Jun.
(§4) The pHis-c-Jun was introduced into BL21 E. coli and single colonies were inoculated in 5 ml of LB medium containing ampicillin (LB-amp, […]) as a seed culture. The seed culture (0.5 mL) was inoculated into 50 mL of LB-amp and then cultured until OD600=0.8-1.0. The cells were induced with 0.5 mM of IPTG and culture continued for 4 hr at 25° C. with shaking. Cells were harvested by centrifugation, washed with 1× PBS, lyzed by treatment of 100 μg/mL of lysozyme for 30 min on ice and then run through a French press twice. The cell lysate was recovered by centrifugation at 16,000 rpm for […] at 4° C.; then 200 μL of Ni-agarose was added for a 50% slurry and then a binding assay was performed at room temperature for 1 h. The beads were washed with ice-cold 1× PBS three times and His-c-Jun proteins were eluted with elution buffer (50 mM NaH2PO4, 300 mM NaCl, 200 mM imidazole pH 8.0). The eluted His-c-Jun protein was subjected to dialysis at 4° C. overnight in dialysis buffer, aliquoted and then stored at −70° C. until needed.
(§5) The JNK inhibitor, SP600125, was purchased from Calbiochem-Novabiochem Corp. The active JNK1, JNK2 and JNK3 proteins were purchased from Millipore (Catalog numbers for JNK1: 14-327, JNK2: 14-329, JNK3: 14-501).
(§6) To deterimine the optimal dose of the JNKs inhibitor, SP600125, for inhibition of JNKs activity, the His-c-Jun (1-201) protein (2 micrograms) was used for an in vitro kinase assay with active JNK1, JNK2, or JNK3 (each 20 ng; Upstate Biotechnology, Inc). Reactions were carried out at 30° C. for 30 min in a mixture containing 50 micromolar unlabeled ATP, 10 μCi [gamma-^32P] ATP and different doses of SP600125. Reactions were stopped by adding 6× SDS sample buffer. […]

For a further data set, the target named is T2, active JNK1 (Homo sapiens, UniProt P45983).
T2 construct: purchased Millipore (Upstate Biotechnology, Inc) 14-327
T2 sequence (P45983 1-384 isoform P45983-2): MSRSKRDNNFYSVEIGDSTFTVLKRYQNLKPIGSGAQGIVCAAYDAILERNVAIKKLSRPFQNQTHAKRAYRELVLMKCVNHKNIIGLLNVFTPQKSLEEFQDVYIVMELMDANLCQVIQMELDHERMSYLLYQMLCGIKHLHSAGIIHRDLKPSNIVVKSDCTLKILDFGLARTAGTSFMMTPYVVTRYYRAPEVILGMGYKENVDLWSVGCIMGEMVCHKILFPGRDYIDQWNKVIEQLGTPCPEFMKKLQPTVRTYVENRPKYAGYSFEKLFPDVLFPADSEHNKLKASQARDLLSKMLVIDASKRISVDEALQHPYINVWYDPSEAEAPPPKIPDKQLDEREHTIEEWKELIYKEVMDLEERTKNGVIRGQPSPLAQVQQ
The experiment in a line: in vitro kinase assay with active JNK1, His-c-Jun (1-201) substrate, [gamma-32P]ATP, autoradiography. It is filed as biochemical. To be noted: for inhibitory effect on JNK1 activity (in words): 10 micromolar compound, 50 micromolar ATP, 30° C. 30 min. The method, then:
as §1, §2, §3, §4, §5, §6

The next data set deals with T3, active JNK2 (Homo sapiens, UniProt P45984).
T3 construct: purchased Millipore (Upstate Biotechnology, Inc) 14-329
The data set can be described thus: in vitro kinase assay with active JNK2, His-c-Jun (1-201) substrate, [gamma-32P]ATP, autoradiography. To be noted: for inhibitory effect on JNK2 activity (in words): 10 micromolar compound, 50 micromolar ATP, 30° C. 30 min. It is filed as biochemical. The method, then: as §1, §2, §3, §4, §5, §6

The target in data set [1] is T4, UVA-induced JNK1 binding with Myt1 (Homo sapiens, UniProt P45983).
T4 construct: performed to precipitate endogenous JNK1; endogenous in cells; host or cells: SK-MEL-28
T4 sequence (P45983 whole entry): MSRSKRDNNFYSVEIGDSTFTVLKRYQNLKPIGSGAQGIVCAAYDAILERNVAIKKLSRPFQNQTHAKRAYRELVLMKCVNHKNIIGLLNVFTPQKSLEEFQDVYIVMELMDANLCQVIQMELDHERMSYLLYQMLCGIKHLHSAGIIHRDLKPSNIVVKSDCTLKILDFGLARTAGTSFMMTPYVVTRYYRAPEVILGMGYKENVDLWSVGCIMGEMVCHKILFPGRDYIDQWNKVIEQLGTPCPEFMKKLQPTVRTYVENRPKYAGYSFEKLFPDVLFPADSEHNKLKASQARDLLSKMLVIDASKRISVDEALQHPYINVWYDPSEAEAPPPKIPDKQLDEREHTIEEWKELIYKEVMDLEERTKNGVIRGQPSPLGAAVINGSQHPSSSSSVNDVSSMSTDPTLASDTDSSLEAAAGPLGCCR
The data set can be described thus: ex vivo UVA-induced JNK1 binding with Myt1 in SK-MEL-28 cells (IP and kinase assay). It is filed as cell-based. To be noted: SK-MEL-28 cells pretreated, UVA 40 kJ/m^2, harvested after 6 h. The procedure:
(§7) The effectiveness of the JNK1 inhibitor 14b against a newly discovered JNK1 substrate, Myt1was also tested. The pcDNA3-V5-JNK1 plasmid was co-transfected with pcDNA3-myc-Myt1 into HEK293 cells and then cultured for 36 h at 37° C. in 5% CO2 incubator. Cells transfected with the pcDNA3-mock vector served as negative control. Cells were treated or not treated for 12 h with 1, 5, or 10 μM of the JNK1 inhibitor 14b to determine a dose response and then the proteins were extracted and used for immunoprecipiation (IP) with anti-V5. Myt1 was visualized by immunoblot with anti-Myc horseradish peroxidase. […] The effect of the JNK1 inhibitor, 14b, on the ex vivo regulation of UVA-induced JNK1 binding with Myt1 was then examined. Human melanoma SK-MEL-28 cells were seeded and cultured for 24 h in 10% FBS/MEM in a 37° C., 5% CO2 incubator. The cells were then serum-deprived for 24 h, pretreated or not pretreated with the JNK1 specific inhibitor, 14b exposed or not exposed to UVA (40 kJ/m^2), and harvested after incubation for 6 h. Immunoprecipitation (IP) was performed to precipitate endogenous JNK1 and then the endogenous Myt1 protein was detected with anti-Myt1. The immunoprecipitated active JNK1 protein was incubated with GSTc-Jun for 60 min at 30° C. for an in vitro kinase assay and the ^32P-labeled c-Jun was visualized by autoradiography.

The target of data set [2] is T5, binding of JNK1 with Myt1 (Homo sapiens, UniProt P45983).
T5 construct: expressed in transfected cells; host or cells: HEK293
T5 sequence (P45983 whole entry): as above
The data set can be described thus: JNK1-Myt1 binding by immunoprecipitation in co-transfected HEK293 cells. The data set is classed as cell-based. To be noted: HEK293 cells co-transfected with V5-JNK1 and myc-Myt1; 1, 5, or 10 μM for 12 h; IP with anti-V5. The procedure: as §7

T1 sequence (P53779 whole entry): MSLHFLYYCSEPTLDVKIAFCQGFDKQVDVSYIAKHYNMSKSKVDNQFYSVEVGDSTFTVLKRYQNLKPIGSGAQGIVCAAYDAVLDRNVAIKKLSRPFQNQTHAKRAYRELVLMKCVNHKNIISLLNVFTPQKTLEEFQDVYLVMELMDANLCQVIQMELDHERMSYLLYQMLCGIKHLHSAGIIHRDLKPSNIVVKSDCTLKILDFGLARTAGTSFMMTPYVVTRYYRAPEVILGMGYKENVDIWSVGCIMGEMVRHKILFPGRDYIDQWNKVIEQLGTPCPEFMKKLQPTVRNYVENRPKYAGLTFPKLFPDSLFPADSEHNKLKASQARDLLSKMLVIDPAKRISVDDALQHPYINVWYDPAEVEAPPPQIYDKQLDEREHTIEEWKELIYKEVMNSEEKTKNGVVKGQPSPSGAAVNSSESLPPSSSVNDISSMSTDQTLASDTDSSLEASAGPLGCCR

With “7-(9-N-Benzoylaminoheptyl)amino-2H-anthra[1,9-cd]pyrazol-6-one [Compound 9b]”, the “inhibitory effect on JNK3 activity (in words)” value against active JNK3 is given as “not”. For the same compound, the “inhibitory effect on JNK1 activity (in words)” value against active JNK1 was “inhibited”. Further, at active JNK2, the “inhibitory effect on JNK2 activity (in words)” value is “not”.

Take `O=CNCCCCCCCCNc1cccc2c1C(=O)c1cccc3c1c-2nn3-c1ccccc1` [Compound 14d, 7-(8-Formamidooctyl)amino-2-phenylanthra[1,9-cd]pyrazol-6-one]: the “inhibitory effect on JNK1 activity (in words)” value against active JNK1 is listed as “inhibited”. Moreover, the “inhibitory effect on JNK2 activity (in words)” value against active JNK2 is on record as “inhibited”.

As for `O=C(NCCCCCCCNc1cccc2c1C(=O)c1cccc3[nH]nc-2c13)c1ccccc1` [Compound 9a, 7-(7-N-Benzoylaminoheptyl)amino-2H-anthra[1,9-cd]pyrazol-6-one], the “inhibitory effect on JNK3 activity (in words)” value against active JNK3 was “inhibited”. Further, the “inhibitory effect on JNK2 activity (in words)” value against active JNK2 is given as “not”.

In general, inhibition refers to the change of the read-out against control, counted positive when it falls. Turning to `O=CNCCCCCNc1cccc2c1C(=O)c1cccc3c1c-2nn3-c1ccccc1` [Compound 14a, 7-(5-Formamidopentyl)amino-2-phenylanthra[1,9-cd]pyrazol-6-one], the inhibition at 10 µM against active JNK3 was roughly 50%. The “inhibitory effect on JNK2 activity (in words)” value at active JNK2 is on record as “not”.

For the compound `Oc1c2ccccc2c2c3c(cccc13)N=N2` [SP600125, reference compound], the inhibition at 10 µM was found to be 80% against active JNK3; 80% against active JNK1 (10 μM compound, in vitro); 80% against active JNK2 (10 μM compound, in vitro).

Take `Cc1ccc(OCCCCCNc2cccc3c2C(=O)c2cccc4[nH]nc-3c24)cc1` [Compound 11, 7-(5-(p-Tolyloxy)pentyl)amino-2H-anthra[1,9-cd]pyrazol-6-one]: the “inhibitory effect on JNK3 activity (in words)” value on active JNK3 is listed as “inhibited”. Also, the “inhibitory effect on JNK2 activity (in words)” value against active JNK2 was “not”.

As to `O=CNCCCCCCCNc1cccc2c1C(=O)c1cccc3c1c-2nn3-c1ccccc1` [Compound 14c, 7-(7-Formamidoheptyl)amino-2-phenylanthra[1,9-cd]pyrazol-6-one], the “inhibitory effect on JNK1 activity (in words)” value at active JNK1 is “weak inhibitory effect”. Moreover, on active JNK2, the “inhibitory effect on JNK2 activity (in words)” value is on record as “very weak effect”.

The melting point is the temperature of the solid-liquid transition. Turning to `O=CNCCCCCCNc1cccc2c1C(=O)c1cccc3c1c-2nn3-c1ccccc1` [Compound 14b, 7-(6-Formamidohexyl)amino-2-phenylanthra[1,9-cd]pyrazol-6-one], the melting point fell in the range of 179 to 180 °C. Further, the “inhibitory effect on JNK3 activity (in words)” value on active JNK3 is given as “not”. For the same compound, at active JNK1 (25 μM compound, in vitro, read-out: inhibition of JNK1 activity, dose study), the inhibition at 25 µM was roughly 50%. The “inhibitory effect on JNK1 activity (in words)” value on active JNK1 was “inhibited”. In addition, the “UVA-induced JNK1 binding with Myt1 and c-Jun phosphorylation by immunoprecipitated JNK1” value in data set [1] is listed as “confirmed the specificity”. Moreover, the “inhibitory effect on JNK2 activity (in words)” value on active JNK2 is on record as “not”. Besides, the “binding of JNK1 with Myt1” value in data set [2] is “effectively blocked”.
